Drawing on patent US20250051327A1, “MALT-1 MODULATORS” (EXSCIENTIA AI LIMITED, priority 2020, published 2025), this text covers IC50 for eleven molecules.

One may read the IC50 as the concentration that inhibits the measured activity by half.

Assay [1] concerns the target Recombinant human MALT-1 (amino acids 340-824) (Homo sapiens (Human), UniProt Q9UDY8). The experiment in a line: MALT-1 inhibition assay (fluorogenic substrate Ac-LRSR-Rh110-DP). To be noted: recombinant human MALT-1, substrate Ac-LRSR-Rh110-DP. Type of assay: biochemical. A digest of the protocol:
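Reactions were started with fluorogenic substrate Ac-LRSR-Rh110-DP (10 μM final) against 3 nM enzyme and kept dark at 25° C for 60 minutes. IC50 values came from 4-parameter logistic fits of percent inhibition calculated from relative fluorescence units.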

The test system of assay [2] is IL-2 secretion by human effector memory T cells (TEM). The experiment in a line: Effector memory T cells IL-2 release assay. To be noted: T-cell; human CD4+ effector memory T cells, CD3/CD28 bead stimulation, 24 h; read-out: CD4TC IL2 IC50. The format is cell-based. A digest of the protocol: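 Human CD4+ effector memory T cells from healthy-donor buffy coats were stimulated with anti-CD3/CD28 Dynabeads and exposed to 10 semi-log compound doses (0.1% DMSO) for 24 h at 37 °C. Supernatant IL-2 was measured by HTRF, and IC50 came from a 4-parameter logistic fit to maximal IL-2. Viability was checked by flow cytometry.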

Recombinant human MALT-1 (amino acids 340-824), sequence (Q9UDY8 340-824): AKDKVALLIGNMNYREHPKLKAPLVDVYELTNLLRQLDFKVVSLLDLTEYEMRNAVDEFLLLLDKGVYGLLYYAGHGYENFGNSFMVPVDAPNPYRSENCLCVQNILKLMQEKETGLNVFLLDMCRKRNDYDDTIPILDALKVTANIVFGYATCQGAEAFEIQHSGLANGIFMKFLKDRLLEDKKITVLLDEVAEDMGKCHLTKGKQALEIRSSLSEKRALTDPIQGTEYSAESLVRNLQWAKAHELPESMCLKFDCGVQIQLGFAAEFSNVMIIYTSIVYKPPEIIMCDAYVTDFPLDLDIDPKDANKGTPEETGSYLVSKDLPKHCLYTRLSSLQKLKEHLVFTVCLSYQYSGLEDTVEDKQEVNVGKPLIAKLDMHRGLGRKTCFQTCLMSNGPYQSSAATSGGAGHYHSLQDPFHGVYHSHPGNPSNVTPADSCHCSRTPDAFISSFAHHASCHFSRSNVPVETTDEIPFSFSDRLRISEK

For `COc1ccc2ncc3c(c2n1)CCCN3c1ccc([C@H](N(C)C(=O)C2CCS(=O)(=O)CC2)C(F)(F)F)cc1` [CPD0072532, N-methyl-1,1-dioxo-N-[(1S)-2,2,2-trifluoro-1-[4-(2-methoxy-9,10-dihydro-8H-pyrido[2,3-f][1,7]naphthyridin-7-yl)phenyl]ethyl]thiane-4-carboxamide], the IC50 is 217 nM in assay [1] and 548 nM in assay [2].
For `COc1ccc2ncc(Nc3ccc([C@@H](N(C)C(=O)[C@H]4CC[S@@](=N)(=O)CC4)C(F)(F)F)cc3)c([C@H](C)OC)c2n1` (relative stereo) [CPD0077186, (1 rel-r,4rel-s)-1-imino-N-methyl-1-oxo-N-[(1R)-2,2,2-trifluoro-1-[4-({6-methoxy-4-[(1 rel-S)-1-methoxyethyl]-1,5-naphthyridin-3-yl}amino)phenyl]ethyl]-1λ^6-thiane-4-carboxamide] the same measures were 126 nM and 158 nM.
The like results for `CN(C(=O)C1CC(O)C1)[C@@H](c1ccc(N2CCCc3c2cnc2cc(Cl)nn32)cc1)C(F)(F)F` (stereo partly drawn) [CPD0021565, N-[(1S)-1-(4-{4-chloro-2,3,7,10-tetraazatricyclo[7.4.0.0^2,6]trideca-1(9),3,5,7-tetraen-10-yl}phenyl)-2,2,2-trifluoroethyl]-3-hydroxy-N-methylcyclobutane-1-carboxamide] were, in that order, 84 nM and 86 nM.
The like results for `CN([C@@H](c1ccc(N2CCCc3c2cnc2cc(Cl)nn32)cc1)C(F)(F)F)[S+]([O-])C(C)(C)C` (stereo partly shown) [CPD0021661] were, in that order, 302 nM and 1470 nM.
In the case of `CN(C(=O)[C@H]1C[C@@H](S(C)(=O)=O)C1)[C@@H](c1ccc(N2CCCc3c2cnc2cc(Cl)nn32)cc1)C(F)(F)F` [CPD0073502, cis-N-[(1S)-1-(4-{4-chloro-2,3,7,10-tetraazatricyclo[7.4.0.0^2,6]trideca-1(9),3,5,7-tetraen-10-yl}phenyl)-2,2,2-trifluoroethyl]-3-methanesulfonyl-N-methylcyclobutane-1-carboxamide], the IC50 was 61 nM in assay [1] and 104 nM in assay [2].
For `CN(C(=O)C1CCS(=N)(=O)CC1)[C@@H](c1ccc(N2CCCc3c2cnc2cc(Cl)nn32)cc1)C(F)(F)F` (stereo partly shown) [CPD0021810] the same measures were 63 nM and 194 nM.
The like results for `CN(C(=O)[C@H]1CC[C@H](C(=O)O)CC1)[C@@H](c1ccc(N2CCCc3c2cnc2cc(Cl)nn32)cc1)C(F)(F)F` [CPD0072442, (1r,4r)-4-{[(1S)-1-(4-{4-chloro-2,3,7,10-tetraazatricyclo[7.4.0.0^2,6]trideca-1(9),3,5,7-tetraen-10-yl}phenyl)-2,2,2-trifluoroethyl](methyl)carbamoyl}cyclohexane-1-carboxylic acid] were, in that order, 43 nM and 300 nM.
For `COC(C)c1c(Nc2ccc([C@H](N(C)C(=O)C3CCS(=O)(=O)CC3)C(F)(F)F)cn2)cnc2ccc(Cl)nc12` (stereo partly drawn) [CPD0019499, N-[(1S)-1-(6-{[6-chloro-4-(1-methoxyethyl)-1,5-naphthyridin-3-yl]amino}pyridin-3-yl)-2,2,2-trifluoroethyl]-N-methyl-1,1-dioxo-1λ^6-thiane-4-carboxamide], the IC50 in assay [1] was 80 nM; in assay [2], 190 nM.
The like results for `Cc1ncc(C(=O)N(C)[C@@H](c2ccc(N3CCCc4c3cnc3cc(Cl)nn43)cc2)C(F)(F)F)n1C` [CPD0019346, N-[(1S)-1-(4-{4-chloro-2,3,7,10-tetraazatricyclo[7.4.0.0^2,6]trideca-1(9),3,5,7-tetraen-10-yl}phenyl)-2,2,2-trifluoroethyl]-N,1,2-trimethyl-1H-imidazole-5-carboxamide] were, in that order, 535 nM and 720 nM.
`CN(C(=O)[C@H]1CC[S@+]([O-])CC1)[C@@H](c1ccc(N2CCC3(CC3)c3c2cnc2cc(Cl)nn32)cc1)C(F)(F)F` (relative stereo) [CPD0072779, (1rel-r,4rel-r)-N-[(1S)-1-(4-{4′-chloro-2′,3′,7′,10′-tetraazaspiro[cyclopropane-1,13′-tricyclo[7.4.0.0^2,6]tridecane]-1′(9′),3′,5′,7′-tetraen-10′-yl}phenyl)-2,2,2-trifluoroethyl]-N-methyl-1-oxo-1λ^4-thiane-4-carboxamide]: the IC50 in assay [1] is 57 nM; in assay [2], 33 nM.
The like results for `CN(C(=O)[C@H]1CCC(=O)N1)[C@@H](c1ccc(N2CCCc3c2cnc2cc(Cl)nn32)cc1)C(F)(F)F` (relative stereo) [CPD0073567, (2rel-R)-N-[(1S)-1-(4-{4-chloro-2,3,7,10-tetraazatricyclo[7.4.0.0^2,6]trideca-1(9),3,5,7-tetraen-10-yl}phenyl)-2,2,2-trifluoroethyl]-N-methyl-5-oxopyrrolidine-2-carboxamide] were, in that order, 35 nM and 119 nM.
